From ChEMBL document CHEMBL1132822, “2,4,5-Trisubstituted imidazoles: novel nontoxic modulators of P-glycoprotein mediated multidrug resistance. Part 2” (Bioorg Med Chem Lett, 2000)

Experiments:
Canis familiaris = experiment: (§1) Oral bioavailability in dog (dose 10 mg/kg); type: functional, organism-based; details: Canis lupus familiaris
[1] = Half life in Dog plasma at a dosage 5 mg/kg after intravenous administration; type: ADME, organism-based, Canis lupus familiaris; design: dose 5 mg/kg, route intravenous
[2] = target: ATP-dependent translocase ABCB1 (Homo sapiens, UniProt P08183); experiment: Modulation of Pgp (P-glycoprotein) mediated multidrug resistance in CEM / VLB 1000 cell line; type: functional, cell-based, CCRF-CEM; details: read-out: ED50 (the source's name)
Sequence of ATP-dependent translocase ABCB1 (P08183 whole entry): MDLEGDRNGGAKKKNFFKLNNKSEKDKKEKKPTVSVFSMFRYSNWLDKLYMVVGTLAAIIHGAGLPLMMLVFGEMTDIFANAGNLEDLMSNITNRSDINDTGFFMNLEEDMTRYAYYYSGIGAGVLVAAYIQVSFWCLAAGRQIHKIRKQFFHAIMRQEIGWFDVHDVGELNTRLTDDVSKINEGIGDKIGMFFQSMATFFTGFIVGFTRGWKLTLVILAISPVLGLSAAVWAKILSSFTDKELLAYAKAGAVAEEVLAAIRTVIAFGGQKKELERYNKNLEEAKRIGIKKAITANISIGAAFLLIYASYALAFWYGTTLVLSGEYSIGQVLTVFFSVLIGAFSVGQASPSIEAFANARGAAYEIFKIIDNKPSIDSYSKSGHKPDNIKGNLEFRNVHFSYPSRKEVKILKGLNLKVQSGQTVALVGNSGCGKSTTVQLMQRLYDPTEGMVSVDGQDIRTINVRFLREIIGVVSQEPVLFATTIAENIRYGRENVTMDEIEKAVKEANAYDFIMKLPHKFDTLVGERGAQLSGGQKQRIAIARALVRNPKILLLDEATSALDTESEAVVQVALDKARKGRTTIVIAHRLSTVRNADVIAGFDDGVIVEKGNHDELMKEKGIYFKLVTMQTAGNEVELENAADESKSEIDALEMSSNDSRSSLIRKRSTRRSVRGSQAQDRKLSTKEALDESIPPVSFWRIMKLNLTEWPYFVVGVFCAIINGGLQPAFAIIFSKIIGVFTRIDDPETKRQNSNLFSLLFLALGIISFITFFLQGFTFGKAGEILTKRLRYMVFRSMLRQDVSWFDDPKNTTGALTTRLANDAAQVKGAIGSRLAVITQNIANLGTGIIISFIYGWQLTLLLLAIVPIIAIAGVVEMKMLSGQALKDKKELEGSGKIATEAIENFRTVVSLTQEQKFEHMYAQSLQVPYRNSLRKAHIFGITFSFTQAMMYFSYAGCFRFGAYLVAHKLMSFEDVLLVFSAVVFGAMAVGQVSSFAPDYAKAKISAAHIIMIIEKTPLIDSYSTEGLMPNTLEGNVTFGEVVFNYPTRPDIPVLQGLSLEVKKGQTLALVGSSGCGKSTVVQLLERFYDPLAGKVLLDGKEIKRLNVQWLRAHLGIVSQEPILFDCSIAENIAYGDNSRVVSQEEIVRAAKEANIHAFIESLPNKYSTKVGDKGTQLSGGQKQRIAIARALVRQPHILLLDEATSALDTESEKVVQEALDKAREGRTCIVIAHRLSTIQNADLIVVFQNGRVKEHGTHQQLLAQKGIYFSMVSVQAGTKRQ

Homo sapiens = experiment: Compound concentration in plasma of healthy human (male) after 3-4h of 400 mg dose of compound given orally; type: functional
[3] = as §1; type: ADME, organism-based, Canis lupus familiaris; details: in vivo

Row | EC50 [2] | SMILES | further results
1 | 160 nM | CCOC/C=C/c1ccc(-c2nc(-c3ccc(F)cc3)c(-c3ccc(NC(C)C)cc3)[nH]2)cc1 | bioavailability (Canis familiaris): 45%; half-life [1]: 1.27 h
2 | 120 nM | CNc1ccc(-c2[nH]c(-c3ccc(/C=C/C(=O)OC)cc3)nc2-c2ccc(NC(C)C)cc2)cc1 | –
3 | 50 nM | CCOC/C=C/c1ccc(-c2nc(-c3ccc(NC(C)C)cc3)c(-c3ccc(NC)cc3)[nH]2)cc1 | bioavailability (Canis familiaris): 36%; half-life [1]: 1.35 h
4 | 5500 nM | C=CCN(CC=C)c1ccc(-c2nc(-c3ccc(/C=C/C(=O)OC)cc3)[nH]c2-c2ccc(N(CC=C)CC=C)cc2)cc1 | –
5 | 280 nM | CCCN(CCC)c1ccc(-c2c[nH]c(-c3ccc(/C=C/COCC)cc3)n2)cc1 | –
6 | 590 nM | COC(=O)/C=C/c1ccc(-c2nc(-c3ccc(N)cc3)c(-c3ccc(N(C)C)cc3)[nH]2)cc1 | –
7 | 60 nM | CCOCC/C=C/c1ccc(-c2nc(-c3ccc(NC)cc3)c(-c3ccc(N(CC)CC)cc3)[nH]2)cc1 | –
8 | 250 nM | CCOC/C=C/c1ccc(-c2nc(-c3ccc(NCC(C)C)cc3)c[nH]2)cc1 | –
9 | 570 nM | CCN(CC)c1ccc(-c2nc(-c3ccc(/C=C/C(=O)OC)cc3)[nH]c2-c2ccc(N(CC)CC)cc2)cc1 | –
10 | 260 nM | CCOC/C=C/c1ccc(-c2nc(-c3ccc(N(CC)CC)cc3)c(-c3ccc(N(CC)CC)cc3)[nH]2)cc1 | –
11 | 180 nM | CCCN(CCC)c1ccc(-c2[nH]c(-c3ccc(/C=C/C(=O)OC)cc3)nc2-c2ccc(NC)cc2)cc1 | –
12 | 370 nM | CCOC/C=C/c1ccc(-c2nc(-c3ccc(N4CCOCC4)cc3)c[nH]2)cc1 | –
13 | 300 nM | COC(=O)/C=C/c1ccc(-c2nc(-c3ccc(N(C)C)cc3)c(-c3ccc(N(C)C)cc3)[nH]2)cc1 | –
14 | 50 nM | CCNc1ccc(-c2[nH]c(-c3ccc(/C=C/COCC)cc3)nc2-c2ccc(NC(C)C)cc2)cc1 | –
15 | 50 nM | CCOC/C=C/c1ccc(-c2nc(-c3ccc(NC(C)C)cc3)c(-c3ccc(NC(C)C)cc3)[nH]2)cc1 | bioavailability (Canis familiaris): 41%; half-life [1]: 2.79 h; Concentration (Homo sapiens): 3 µM
16 | 200 nM | CNc1ccc(-c2nc(-c3ccc(/C=C/C(=O)OC)cc3)[nH]c2-c2ccc(NC)cc2)cc1 | –
17 | 370 nM | COC(=O)/C=C/c1ccc(-c2nc(-c3ccc(N4CCCC4)cc3)c(-c3ccc(N4CCCC4)cc3)[nH]2)cc1 | –
18 | 80 nM | CCOC/C=C/c1ccc(-c2nc(-c3ccc(N(C)C)cc3)c(-c3ccc(N(C)C)cc3)[nH]2)cc1 | bioavailability [3]: 35%; half-life [1]: 0.5 h
19 | 70 nM | CCN(CC)c1ccc(-c2[nH]c(-c3ccc(/C=C/C(=O)OC)cc3)nc2-c2ccc(NC)cc2)cc1 | –
20 | 340 nM | CCOC/C=C/c1ccc(-c2nc(-c3ccc(NC(C)C)cc3)c[nH]2)cc1 | –
21 | 150 nM | CCOC/C=C/c1ccc(-c2nc(-c3ccc(NC)cc3)c(-c3ccc(N4CCCC4)cc3)[nH]2)cc1 | –
22 | 2100 nM | CCCCN(CCCC)c1ccc(-c2[nH]c(-c3ccc(/C=C/C(=O)OC)cc3)nc2-c2ccc(NC)cc2)cc1 | –
23 | 310 nM | CCN(CC)c1ccc(-c2[nH]c(-c3ccc(/C=C/C(=O)OC)cc3)nc2-c2ccc(N)cc2)cc1 | –
24 | 110 nM | CNc1ccc(-c2[nH]c(-c3ccc(/C=C/CCOC)cc3)nc2-c2ccc(N(C)C)cc2)cc1 | –
25 | 220 nM | CCOC/C=C/c1ccc(-c2nc(-c3ccc(N4CCOCC4)cc3)c(-c3ccc(N4CCOCC4)cc3)[nH]2)cc1 | –
26 | 300 nM | CCOC/C=C/c1ccc(-c2nc(-c3ccc(N(CC)CC)cc3)c[nH]2)cc1 | –
27 | 130 nM | CNc1ccc(-c2[nH]c(-c3ccc(/C=C/C(=O)OC)cc3)nc2-c2ccc(N(C)C)cc2)cc1 | –
